These are literature values, as cited in patent US20170065561A1, “METHODS OF CANCER THERAPY” (CAMBRIDGE ENTERPRISE LIMITED, priority 2014, published 2017).

Each structure is given as a SMILES string.

In this data set the test system is type 1 (non-neuronopathic) Gaucher disease. Conditions: type 1 Gaucher disease; cited from earlier work.

Regarding `CCCCN1C[C@H](O)[C@@H](O)[C@H](O)[C@H]1CO` [N-butyldeoxynojirimycin], the “therapeutic action in clinical studies” value is on record as “small therapeutic action”.
